Counter-ions that a name gives are not always drawn.
Columns and labels:
[1] = tested on: Pfeiffer cell line (diffuse large B cell lymphoma); experiment: Pfeiffer Cell Proliferation Assay; format: cell-based; details: 3-4 days, [3H]-thymidine incorporation
Method: Pfeiffer cell line (diffuse large B cell lymphoma) was purchased from ATCC (Manassas, Va.) and maintained in the culture medium recommended (RPMI and 10% FBS). To measure the anti-proliferation activity of the PI3Kδ submittals, the Pfeiffer cells were plated with the culture medium (2×10^3 cells/well/per 200 μl) into 96-well ultra-low binding plates (Corning, Corning, N.Y.), in the presence or absence of a concentration range of test compounds. After 3-4 days, [^3H]-thymidine (1 μCi/well) (PerkinElmer, Boston, Mass.) in PBS was then added to the cell culture for an additional 12 hrs before the incorporated radioactivity was separated by filtration with water through GF/B filters (Packard Bioscience, Meriden, Conn.) and measured by liquid scintillation counting with a TopCount (Packard Bioscience). See Table 3 for data related to compounds of the invention.

PI3Kδ (p110δ/p85α) [2] = target: T1, PI3Kδ (p110δ/p85α) (Homo sapiens (Human), UniProt O00329); experiment: AlphaScreen Assay for PI3Kδ (Assay A1); format: biochemical; details: column a, 20 μM ATP
T1 sequence (O00329 whole entry, species assumed): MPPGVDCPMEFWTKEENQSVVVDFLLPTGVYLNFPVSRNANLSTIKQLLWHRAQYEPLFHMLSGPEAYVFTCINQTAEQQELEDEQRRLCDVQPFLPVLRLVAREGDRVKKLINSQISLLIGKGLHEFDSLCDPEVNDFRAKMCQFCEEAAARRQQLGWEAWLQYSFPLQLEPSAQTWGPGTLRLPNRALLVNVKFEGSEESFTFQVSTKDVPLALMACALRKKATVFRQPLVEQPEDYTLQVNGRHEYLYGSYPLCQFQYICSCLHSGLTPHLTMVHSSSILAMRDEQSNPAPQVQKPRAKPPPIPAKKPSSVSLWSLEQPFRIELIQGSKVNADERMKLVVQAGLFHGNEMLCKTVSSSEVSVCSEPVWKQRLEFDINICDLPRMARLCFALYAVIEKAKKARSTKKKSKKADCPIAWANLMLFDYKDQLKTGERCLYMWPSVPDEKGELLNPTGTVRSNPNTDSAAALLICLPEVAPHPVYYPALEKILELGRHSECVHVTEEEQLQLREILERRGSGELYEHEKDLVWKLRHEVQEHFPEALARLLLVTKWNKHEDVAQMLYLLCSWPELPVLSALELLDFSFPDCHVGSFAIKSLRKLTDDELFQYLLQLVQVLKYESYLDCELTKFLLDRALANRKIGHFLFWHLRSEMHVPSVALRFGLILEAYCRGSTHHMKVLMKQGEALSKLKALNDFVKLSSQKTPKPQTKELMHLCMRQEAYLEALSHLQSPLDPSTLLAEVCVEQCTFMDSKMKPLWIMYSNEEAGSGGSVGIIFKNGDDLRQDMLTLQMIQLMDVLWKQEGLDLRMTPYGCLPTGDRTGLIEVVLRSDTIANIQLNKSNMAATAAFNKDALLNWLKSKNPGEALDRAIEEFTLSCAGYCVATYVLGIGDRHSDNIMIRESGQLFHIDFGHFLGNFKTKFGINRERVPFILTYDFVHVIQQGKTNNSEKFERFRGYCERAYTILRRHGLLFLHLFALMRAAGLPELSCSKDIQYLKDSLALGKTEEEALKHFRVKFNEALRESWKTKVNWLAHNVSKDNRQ
T1 sequence (P27986 whole entry partner, species assumed): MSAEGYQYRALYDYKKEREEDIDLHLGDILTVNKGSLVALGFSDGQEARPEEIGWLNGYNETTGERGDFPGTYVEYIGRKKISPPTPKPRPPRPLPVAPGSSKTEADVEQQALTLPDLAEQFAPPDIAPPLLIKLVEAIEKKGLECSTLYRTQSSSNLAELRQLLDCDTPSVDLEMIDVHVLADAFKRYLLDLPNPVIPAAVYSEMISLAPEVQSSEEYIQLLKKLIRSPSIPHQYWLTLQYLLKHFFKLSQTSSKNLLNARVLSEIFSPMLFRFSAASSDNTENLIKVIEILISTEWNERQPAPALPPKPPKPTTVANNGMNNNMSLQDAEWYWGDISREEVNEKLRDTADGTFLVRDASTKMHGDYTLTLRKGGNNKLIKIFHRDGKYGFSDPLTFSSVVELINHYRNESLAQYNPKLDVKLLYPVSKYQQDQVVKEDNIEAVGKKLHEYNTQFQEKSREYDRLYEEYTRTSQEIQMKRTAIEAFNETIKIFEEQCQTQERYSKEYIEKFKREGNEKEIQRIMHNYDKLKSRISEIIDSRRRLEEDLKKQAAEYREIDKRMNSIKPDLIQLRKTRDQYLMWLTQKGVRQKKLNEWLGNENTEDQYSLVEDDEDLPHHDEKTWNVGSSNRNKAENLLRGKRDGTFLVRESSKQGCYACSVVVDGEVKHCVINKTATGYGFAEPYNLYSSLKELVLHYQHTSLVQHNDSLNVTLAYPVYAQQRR
Description: PI3-Kinase luminescent assay kit including lipid kinase substrate, D-myo-phosphatidylinositol 4,5-bisphosphate (PtdIns(4,5)P2)D (+)-sn-1,2-di-O-octanoylglyceryl, 3-O-phospho linked (PIP2), biotinylated I(1,3,4,5)P4, PI(3,4,5)P3 Detector Protein, was purchased from Echelon Biosciences (Salt Lake City, Utah). AlphaScreen™ GST Detection Kit including donor and acceptor beads was purchased from PerkinElmer Life Sciences (Waltham, Mass.). PI3Kδ (p110δ/p85α) was purchased from Millipore (Bedford, Mass.). ATP, MgCb, DTT, EDTA, HEPES and CHAPS were purchased from Sigma-Aldrich (St. Louis, Mo.).
AlphaScreen™ Assay for PI3Kδ
The kinase reaction was conducted in 384-well REMP plate from Thermo Fisher Scientific in a final volume of 40 μL. Inhibitors were first diluted serially in DMSO and added to the plate wells before the addition of other reaction components. The final concentration of DMSO in the assay was 2%. The PI3K assays were carried out at room temperature in 50 mM HEPES, pH 7.4, 5 mM MgCl2, 50 mM NaCl, 5 mM DTT and CHAPS 0.04%. Reactions were initiated by the addition of ATP, the final reaction mixture consisted of 20 μM PIP2, 20 μM ATP, 1.2 nM PI3Kδ were incubated for 20 min. 10 μL of reaction mixture was then transferred to 5 μL 50 nM biotinylated I(1,3,4,5)P4 in quench buffer: 50 mM HEPES pH 7.4, 150 mM NaCl, 10 mM EDTA, 5 mM DTT, 0.1% Tween-20, followed with the addition of 10 μL AlphaScreen™ donor and acceptor beads suspended in quench buffer containing 25 nM PI(3,4,5)P3 detector protein. The final concentration of both donor and acceptor beads is […]. After plate sealing, the plate was incubated in a dark location at room temperature for 2 hours. The activity of the product was determined on Fusion-alpha microplate reader (Perkin-Elmer). IC50 determination was performed by fitting the curve of percent control activity versus the log of the inhibitor concentration using the GraphPad Prism 3.0 software.

PI3Kδ (p110δ/p85α) [3] = target: T1, PI3Kδ (p110δ/p85α); experiment: PI3Kδ Scintillation Proximity Assay (Assay A3); format: biochemical; details: column b, Assay A3 (SPA), 20 μM ATP
Description: [γ-^33P]ATP (10 mCi/mL) was purchased from Perkin-Elmer (Waltham, Mass.). Lipid kinase substrate, D-myo-Phosphatidylinositol 4,5-bisphosphate (PtdIns(4,5)P2)D (+)-sn-1,2-di-O-octanoylglyceryl, 3-O-phospho linked (PIP2), CAS 204858-53-7, was purchased from Echelon Biosciences (Salt Lake City, Utah). PI3Kδ (p110δ/p85α) was purchased from Millipore (Bedford, Mass.). ATP, MgCl2, DTT, EDTA, MOPS and CHAPS were purchased from Sigma-Aldrich (St. Louis, Mo.). Wheat Germ Agglutinin (WGA) YSi SPA Scintillation Beads was purchased from GE healthcare life sciences (Piscataway, N.J.).
The kinase reaction was conducted in polystyrene 384-well matrix white plate from Thermo Fisher Scientific in a final volume of 25 μL. Inhibitors were first diluted serially in DMSO and added to the plate wells before the addition of other reaction components. The final concentration of DMSO in the assay was 0.5%. The PI3K assays were carried out at room temperature in 20 mM MOPS, pH 6.7, 10 mM MgCl2, 5 mM DTT and CHAPS 0.03%. Reactions were initiated by the addition of ATP, the final reaction mixture consisted of 20 μM PIP2, 20 μM ATP, 0.2 μCi [γ-^33P] ATP, 4 nM PI3Kδ. Reactions were incubated for 210 min and terminated by the addition of 40 μL SPA beads suspended in quench buffer: 150 mM potassium phosphate pH 8.0, 20% glycerol. 25 mM EDTA, 400 μM ATP. The final concentration of SPA beads was 1.0 mg/mL. After the plate sealing, plates were shaken overnight at room temperature and centrifuged at 1800 rpm for 10 minutes, the radioactivity of the product was determined by scintillation counting on Topcount (Perkin-Elmer). IC50 determination was performed by fitting the curve of percent control activity versus the log of the inhibitor concentration using the GraphPad Prism 3.0 software.

With `Cc1csc2nc([C@H](C)Nc3nc(N)nc4[nH]cnc34)c(-c3ccccc3Cl)c(=O)n12` (single isomer, unassigned) [39 Second peak] the IC50 [1] was < 50 nM.

`Cc1cccc2nc(C(C)n3cnc4c(N)ncnc43)c(-c3ccccc3)c(=O)n12` (stereo not drawn) [Example 1, 2-[1-(6-amino-9H-purin-9-yl)ethyl]-6-methyl-3-phenyl-4H-pyrido[1,2-a]pyrimidin-4-one] gave an IC50 (PI3Kδ (p110δ/p85α) [2]) of 100 to 500 nM and an IC50 (PI3Kδ (p110δ/p85α) [3]) of 100 to 500 nM.

`Cc1cccc2nc(C(C)Nc3nc(N)nc4[nH]cnc34)c(-c3cccc(F)c3)c(=O)n12` (single isomer, unassigned) [Example 74, 2-{1-[(2-Amino-9H-purin-6-yl)amino]ethyl}-3-(3-fluorophenyl)-6-methyl-4H-pyrido[1,2-a]pyrimidin-4-one trifluoroacetic acid salt] was tested, and the IC50 (PI3Kδ (p110δ/p85α) [3]) was < 50 nM and the IC50 ([1]; trifluoroacetic acid salt) was < 50 nM.

`CCC(Nc1ncnc2[nH]cnc12)c1nc2cccc(C)n2c(=O)c1-c1cccnc1F` (stereo not drawn) [Example 6, 3-(2-fluoropyridin-3-yl)-6-methyl-2-[1-(9H-purin-6-ylamino)propyl]-4H-pyrido[1,2-a]pyrimidin-4-one] gave an IC50 (PI3Kδ (p110δ/p85α) [2]) of 100 to 500 nM and an IC50 (PI3Kδ (p110δ/p85α) [3]) of 100 to 500 nM.

`CCC(Nc1ncnc2[nH]cnc12)c1nc2cccc(C)n2c(=O)c1-c1cc(F)cc(F)c1` (stereo not drawn) [Example 5, 3-(3,5-difluorophenyl)-6-methyl-2-[1-(9H-purin-6-ylamino)propyl]-4H-pyrido[1,2-a]pyrimidin-4-one] gave an IC50 (PI3Kδ (p110δ/p85α) [2]) of 100 to 500 nM and an IC50 (PI3Kδ (p110δ/p85α) [3]) of 50 to 100 nM.

In the case of `Cc1cccc2nc(C(C)Nc3nc(N)nc4[nH]cnc34)c(-c3cccc(F)c3)c(=O)n12` (single isomer, unassigned) [Example 75, 2-{1-[(2-Amino-9H-purin-6-yl)amino]ethyl}-3-(3-fluorophenyl)-6-methyl-4H-pyrido[1,2-a]pyrimidin-4-one trifluoroacetic acid salt], the IC50 (PI3Kδ (p110δ/p85α) [3]) is reported as > 500 nM and the IC50 ([1]; trifluoroacetic acid salt) is reported as 500 to 1000 nM.

With `Cc1cccc2nc(C(C)Nc3nc(N)nc4[nH]cnc34)c(-c3cccc(F)c3)c(=O)n12` (stereo not drawn) [Example 73, 2-{1-[(2-Amino-9H-purin-6-yl)amino]ethyl}-3-(3-fluorophenyl)-6-methyl-4H-pyrido[1,2-a]pyrimidin-4-one trifluoroacetic acid salt] the IC50 (PI3Kδ (p110δ/p85α) [3]) was < 50 nM and the IC50 ([1]; Homo sapiens, Pfeiffer) was < 50 nM.

In the case of `Cc1cccc2nc(C(C)Nc3ncnc4[nH]cnc34)c(-c3cccc(F)c3)c(=O)n12` (single isomer, unassigned) [Example 72, 3-(3-Fluorophenyl)-6-methyl-2-[1-(9H-purin-6-ylamino)ethyl]-4H-pyrido[1,2-a]pyrimidin-4-one trifluoroacetic acid salt], the IC50 (PI3Kδ (p110δ/p85α) [3]) is reported as > 500 nM and the IC50 ([1]; trifluoroacetic acid salt) is reported as 500 to 1000 nM.

`Cc1csc2nc(C(C)Nc3ncnc4[nH]cnc34)c(-c3ccccn3)c(=O)n12` (stereo not drawn) [Example 14, 3-methyl-7-[1-(9H-purin-6-ylamino)ethyl]-6-pyridin-2-yl-5H-[1,3]thiazolo[3,2-a]pyrimidin-5-one] showed an IC50 (PI3Kδ (p110δ/p85α) [2]) of 50 to 100 nM and an IC50 (PI3Kδ (p110δ/p85α) [3]) of 50 to 100 nM.

`Cc1csc2nc(C(C)Nc3ncnc4[nH]cnc34)c(-c3ccccc3)c(=O)n12` (stereo not drawn) [Example 8, 3-methyl-6-phenyl-7-[1-(9H-purin-6-ylamino)ethyl]-5H-[1,3]thiazolo[3,2-a]pyrimidin-5-one] was tested, and the IC50 (PI3Kδ (p110δ/p85α) [2]) was 50 to 100 nM and the IC50 (PI3Kδ (p110δ/p85α) [3]) was < 50 nM.

In the case of `Cc1cccc2nc(C(C)Nc3ncnc4[nH]cnc34)c(-c3cccc(F)c3)c(=O)n12` (stereo not drawn) [Example 70, 3-(3-Fluorophenyl)-6-methyl-2-[1-(9H-purin-6-ylamino)ethyl]-4H-pyrido[1,2-a]pyrimidin-4-one trifluoroacetic acid salt], the IC50 (PI3Kδ (p110δ/p85α) [3]) is reported as 50 to 100 nM and the IC50 ([1]; Homo sapiens, Pfeiffer) is reported as < 50 nM.

`CCC(Nc1ncnc2[nH]cnc12)c1nc2cccc(C)n2c(=O)c1-c1cccc(F)c1` (stereo not drawn) [Example 4, 3-(3-fluorophenyl)-6-methyl-2-[1-(9H-purin-6-ylamino)propyl]-4H-pyrido[1,2-a]pyrimidin-4-one] was tested, and the IC50 (PI3Kδ (p110δ/p85α) [2]) was 100 to 500 nM and the IC50 (PI3Kδ (p110δ/p85α) [3]) was 50 to 100 nM.

For `CCC(Nc1ncnc2[nH]cnc12)c1nc2cccc(C)n2c(=O)c1-c1ccccc1` (stereo not drawn) [Example 2, 6-methyl-3-phenyl-2-[1-(9H-purin-6-ylamino)propyl]-4H-pyrido[1,2-a]pyrimidin-4-one], the IC50 (PI3Kδ (p110δ/p85α) [2]) was 50 to 100 nM and the IC50 (PI3Kδ (p110δ/p85α) [3]) was < 50 nM.

With `Cc1csc2nc([C@H](C)Nc3ncnc4[nH]cnc34)c(-c3ccccc3Cl)c(=O)n12` (single isomer, unassigned) [43 Second peak] the IC50 [1] was < 50 nM.

`CCC(Nc1ncnc2[nH]cnc12)c1nc2cccc(C)n2c(=O)c1-c1cn[nH]c1` (stereo not drawn) [Example 7, 6-methyl-2-[1-(9H-purin-6-ylamino)propyl]-3-(1H-pyrazol-4-yl)-4H-pyrido[1,2-a]pyrimidin-4-one] showed an IC50 (PI3Kδ (p110δ/p85α) [2]) of 100 to 500 nM and an IC50 (PI3Kδ (p110δ/p85α) [3]) of 50 to 100 nM.

With `CCC(Nc1ncnc2[nH]cnc12)c1nc2cccc(C)n2c(=O)c1-c1cncc(F)c1` (stereo not drawn) [Example 3, 3-(5-fluoropyridin-3-yl)-6-methyl-2-[1-(9H-purin-6-ylamino)propyl]-4H-pyrido[1,2-a]pyrimidin-4-one] the IC50 (PI3Kδ (p110δ/p85α) [2]) was 100 to 500 nM and the IC50 (PI3Kδ (p110δ/p85α) [3]) was 100 to 500 nM.
